Experiment [1] concerns the target T1, HASPIN (Homo sapiens, UniProt Q8TF76).
T1 sequence (Q8TF76 1-798): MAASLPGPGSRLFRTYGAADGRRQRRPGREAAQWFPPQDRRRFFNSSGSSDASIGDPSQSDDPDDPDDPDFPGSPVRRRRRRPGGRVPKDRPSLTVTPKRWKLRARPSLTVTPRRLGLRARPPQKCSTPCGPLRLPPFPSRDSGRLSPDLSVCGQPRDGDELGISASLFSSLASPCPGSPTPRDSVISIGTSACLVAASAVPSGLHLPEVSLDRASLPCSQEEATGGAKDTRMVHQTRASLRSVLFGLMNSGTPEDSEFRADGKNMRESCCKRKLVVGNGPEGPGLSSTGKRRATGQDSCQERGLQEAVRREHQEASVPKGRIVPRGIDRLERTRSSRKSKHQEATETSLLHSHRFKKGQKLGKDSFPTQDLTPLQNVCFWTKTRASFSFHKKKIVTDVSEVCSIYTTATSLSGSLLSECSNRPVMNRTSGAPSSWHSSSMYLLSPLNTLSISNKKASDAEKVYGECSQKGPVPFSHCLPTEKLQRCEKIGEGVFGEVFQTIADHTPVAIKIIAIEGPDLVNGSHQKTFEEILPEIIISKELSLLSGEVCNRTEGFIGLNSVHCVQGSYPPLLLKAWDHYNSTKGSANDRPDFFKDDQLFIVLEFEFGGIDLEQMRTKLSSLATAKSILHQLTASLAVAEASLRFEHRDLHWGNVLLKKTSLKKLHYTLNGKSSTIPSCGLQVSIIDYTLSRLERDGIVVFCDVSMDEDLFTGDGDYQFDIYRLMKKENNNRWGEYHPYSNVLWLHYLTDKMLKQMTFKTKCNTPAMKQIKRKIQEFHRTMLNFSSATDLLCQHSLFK
Nature of the experiment: HASPIN biochemical assay (ADP-Glo, HASPIN autophosphorylation). Conditions: ATP 150 µM, 60 min at 30 °C. How it is done:
HASPIN biochemical Assay: The biochemical assay to measure HASPIN activity relies on the ADP-Glo™ assay kit (Promega) that determines the amount of ADP as direct product of the kinase enzyme activity. Assay conditions were as indicated by the kit manufacturers with the following adaptations for the kinase activity step: Kinase assay buffer and assay volume (15 mM HEPES pH 7.5, 20 mM NaCl, 1 mM EGTA, 0.02% TWEEN 20, 10 mM MgCl2, 0.1 mg/mL BGG)/25 µL assay volume). Incubation time and temperature: 60 min at 30 °C. HASPIN final concentration: 0.9 µg/mL. ATP final concentration: 150 µM. HASPIN autophosphorylation was measured. Assays were performed in 384-well plates. The final outcome of the coupled reactions provided by the kit is the release of […] and has been measured with a multilabel HTS counter Victor V / Envision. Values were normalized against the control activity included (100% HASPIN activity, without compound). Values were plotted against the inhibitor concentration and fit to a sigmoid dose-response curve using Activity base by IDBS software.
On the technique in general: ADP-Glo first removes unused ATP, then detects ADP through luciferase.

For experiment [2], the target named is T1, HASPIN. The experiment can be described thus: Cellular HASPIN inhibition assay (phosphorylation of H3T3, western blot). The class given is cell-based. Conditions: MV4:11 cells, 8 hours of treatment, read-out: pH3T3 EC50. How it is done: Cellular HASPIN Inhibition Assay (phosphorylation of H3T3): Compounds can be screened for their ability to inhibit intracellular HASPIN using a western blot assay to detect phosphorylation of the HASPIN substrate H3T3 in synchronized cells. MV4:11 cells are plated at 400000 cells per well in 6-well plates in RPMI media supplemented with 10% foetal bovine serum, Penicillin/Streptomycin solution diluted 1: 100, and fungizone, and allowed to adhere overnight at 37 °C in 5% CO2. Then, compounds are added to the cell media from a final concentration of 10 µM in 10-fold serial dilutions and the cells are incubated at 37 °C in 5% CO2. After 8 hours of treatment with the compounds, the cells are washed in PBS, lysed adding 100 µl of protein lysis buffer (62.5 mM Tris pH 6.8 al 6.25%, 2% SDS y 10% glycerol) incubation 10 minutes at room temperature and heating at 95 °C 10 min. The protein content of the lysates is determined by DC protein assay. The proteins are resolved by SDS-PAGE and transferred to nitrocellulose membrane. The membranes are incubated overnight at 4 °C with antibodies specific for H3, phosphothreonine-3 H3 they are washed and then incubated with IRDye800 conjugated antimouse and Alexa Fluor 680 goat anti-rabbit IgG secondary antibodies. The bands are visualized and quantified using an Odyssey infrared imaging system. The percentage of H3 phosphorylation is finally plotted against concentration for each compound and EC50s for intracellular HASPIN inhibition are calculated using a software platform for screening data management.
A general note: In western blotting, separated proteins are transferred to a membrane and probed.

A value given as a limit tells only on which side of the number the result lay.

The term IC50 denotes the midpoint of a concentration-inhibition curve. The low end stands for greater potency in that assay, the high end for weaker potency in that assay. Broadly, the EC50 is the concentration giving half of the maximal effect.

Molecule `NC(=O)c1cn2cc(-c3ccnc(Cl)c3)nc(NCC3CCNCC3)c2n1` [Compound 3, 6-(2-Chloro-pyridin-4-yl)-8-[(piperidin-4-ylmethyl)-amino]-imidazo[1,2-a]pyrazine-2-carboxylic acid amide] had an IC50 at HASPIN [1] of 45.2 nM. Further, at HASPIN [2], the EC50 is < 50 nM.

The molecule `Cc1cc(-c2cn3cc(C(N)=O)nc3c(NCC3CCNCC3)n2)ccn1` [Compound 36, 6-(2-Methyl-pyridin-4-yl)-8-[(piperidin-4-ylmethyl)-amino]-imidazo[1,2-a]pyrazine-2-carboxylic acid amide] had a 50% inhibitory concentration (IC50) against HASPIN [1] of 24.6 nM. Moreover, the half-maximal effective concentration (EC50) at HASPIN [2] is < 50 nM.

Take `CNC(=O)c1cn2cc(-c3ccncc3F)nc(NCC3(C#N)CCNCC3)c2n1` [Compound 32, 8-[(4-Cyano-piperidin-4-ylmethyl)-amino]-6-(3-fluoro-pyridin-4-yl)-imidazo[1,2-a]pyrazine-2-carboxylic acid methylamide]: inhibition on HASPIN [1] was half-maximal at 7.63 nM (IC50). Moreover, at HASPIN [2], the 50% effective concentration (EC50) was < 50 nM.

`NC(=O)c1cn2cc(-c3ccncc3F)nc(NCC3CCNCC3)c2n1` [Compound 27, 6-(3-Fluoro-pyridin-4-yl)-8-[(piperidin-4-ylmethyl)-amino]-imidazo[1,2-a]pyrazine-2-carboxylic acid amide] displayed an IC50 against HASPIN [1] of 9.42 nM. On HASPIN [2], the EC50 is < 50 nM.

With `CNC(=O)c1cn2cc(-c3ccncc3)nc(NCC3CCNCC3)c2n1` [Compound 4, 8-[(Piperidin-4-ylmethyl)-amino]-6-pyridin-4-yl-imidazo[1,2-a]pyrazine-2-carboxylic acid methylamide], the concentration for half-maximal inhibition (IC50) against HASPIN [1] was 20.4 nM. For the same molecule, the EC50 at HASPIN [2] is < 50 nM.

As to `NC(=O)c1cn2cc(-c3ccncc3F)nc(NCC3(F)CCNCC3)c2n1` [Compound 33, 8-[(4-Fluoro-piperidin-4-ylmethyl)-amino]-6-(3-fluoro-pyridin-4-yl)-imidazo[1,2-a]pyrazine-2-carboxylic acid amide], it took 10.5 nM to reach half-maximal inhibition at HASPIN [1] (IC50). In addition, the EC50 at HASPIN [2] is < 50 nM.

Take `N#CC1(CNc2nc(-c3ccncc3)cn3cc(C(N)=O)nc23)CCNCC1` [Compound 8, 8-[(4-Cyano-piperidin-4-ylmethyl)-amino]-6-pyridin-4-yl-imidazo[1,2-a]pyrazine-2-carboxylic acid amide]: the IC50 on HASPIN [1] is 19.7 nM. Further, the 50% effective concentration (EC50) at HASPIN [2] was < 50 nM.

The values above are taken from patent EP4049726A1, “IMIDAZO[1,2-A]PYRAZINES AS INHIBITORS OF HASPIN AND THERAPEUTIC USES THEREOF” (Fundación del Sector Público Estatal Centro Nacional de …, priority 2021, dated 2022).
